Results taken from publication PMC8569887 (Journal of medicinal chemistry, 2021).
Entries after “also recorded” stand apart in the source; their conditions may differ.

Columns and labels:
[1] = system: primary rat cortical neurons (axonal AcTub staining); assay type: cell-based; conditions: 1 μM compound; for AcTub staining and axonal processes upon co-addition with okadaic acid: +OA (15 nM, 8 hours); for axonal acetyl-tubulin staining in the absence of OA: relative to vehicle
[2] = system: primary mouse cortical neurons (AcTub levels); assay: AcTub ELISA in primary mouse cortical neurons treated with okadaic acid; assay type: cell-based; conditions: 10 μM (higher concentration)
[3] = Brain and plasma pharmacokinetics after i.p. dosing; assay type: in vivo; conditions: CD1 mice
[4] = system: QBI293 cells; assay: Cytotoxicity in rapidly dividing QBI293 cells; assay type: cell-based; conditions: values in Supporting Information
[5] = system: HeLa cells; assay: Cytotoxicity in rapidly dividing HeLa cells; assay type: cell-based; conditions: values in Supporting Information

C[C@@H](Nc1c(-c2c(F)cc(C#N)cc2F)c(Cl)nc2ncnn12)C(C)(C)C [Compound 69, (R)-4-(5-Chloro-7-((3,3-dimethylbutan-2-yl)amino)-[1,2,4]triazolo[1,5-a]pyrimidin-6-yl)-3,5-difluorobenzonitrile]
AcTub staining and axonal processes upon co-addition with okadaic acid [1]: protects the MT network from okadaic acid-induced collapse; also recorded: normalization of AcTub staining and axonal processes
axonal acetyl-tubulin staining in the absence of OA [1]: increased axonal acetyl-tubulin staining
AcTub levels in neuron homogenates in the presence of OA [2]: AcTub levels comparable to those in neurons without OA treatment
metabolic stability from plasma PK compared with lead compound 3 ([3]; i.p. dosing, compared to 3): greater metabolic stability
clearance compared to 3 ([3]; i.p. injection): reduced clearance
plasma half-life compared to 3 ([3]; i.p. injection): increased plasma half-life

CC(C)[C@H](Nc1c(-c2c(F)cc(F)cc2F)c(Cl)nc2ncnn12)C(F)(F)F [Compound 47, (S)-5-Chloro-N-(1,1,1-trifluoro-3-methylbutan-2-yl)-6-(2,4,6-trifluorophenyl)-[1,2,4]triazolo[1,5-a]pyrimidin-7-amine]
cytotoxicity IC50, side-by-side comparison of enantiomers [4]: did not reveal significant differences in IC50 values
cytotoxicity IC50, side-by-side comparison of enantiomers [5]: did not reveal significant differences in IC50 values

CC(C)[C@@H](Nc1c(-c2c(F)cc(F)cc2F)c(Cl)nc2ncnn12)C(F)(F)F [Compound 46, (R)-5-Chloro-N-(1,1,1-trifluoro-3-methylbutan-2-yl)-6-(2,4,6-trifluorophenyl)-[1,2,4]triazolo[1,5-a]pyrimidin-7-amine]
cytotoxicity IC50, side-by-side comparison of enantiomers [4]: did not reveal significant differences in IC50 values
cytotoxicity IC50, side-by-side comparison of enantiomers [5]: did not reveal significant differences in IC50 values

CC(C)[C@@H](C)Nc1c(-c2c(F)cc(F)cc2F)c(Cl)nc2ncnn12 [Compound 3, reference compound]
AcTub staining and axonal processes upon co-addition with okadaic acid [1]: normalization of AcTub staining and axonal processes
axonal acetyl-tubulin staining in the absence of OA [1]: increased axonal acetyl-tubulin staining
